Reference: the supplement of paper PMC10307832

Experiments:
Bleomycin = compound: CC1=C(N=C(N=C1N)[C@H](CC(=O)N)NC[C@@H](C(=O)N)N)C(=O)N[C@@H]([C@H](C2=CN=CN2)OC3C(C(C(C(O3)CO)O)O)OC4C(C(C(C(O4)CO)O)OC(=O)N)O)C(=O)N[C@H](C)[C@H]([C@H](C)C(=O)N[C@@H]([C@@H](C)O)C(=O)NCCC5=NC(=CS5)C6=NC(=CS6)C(=O)NCCC[S+](C)C)O [Bleomycin]; experiment: relative viability (nuclei count vs DMSO), 5 days (fraction); higher = more cells survive; settings: main component drawn
Summary of the method: (§1)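 Lung cancer cell lines received five library-drug doses (not always all listed) spaced by √10, pinned on vehicle-anchored 1536-well plates after an overnight stay at 37 °C. Five days later, with no medium change, nuclei were Hoechst-stained, imaged at 4× and counted with MetaXpress. Viability is treated-well nuclei relative to vehicle-well nuclei, as a median across plates. Passing plates had control CV below 25% and at least one doubling.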

Etoposide = compound: COc1cc([C@@H]2c3cc4c(cc3[C@@H](O[C@@H]3O[C@@H]5CO[C@@H](C)O[C@H]5[C@H](O)[C@H]3O)[C@H]3COC(=O)[C@H]23)OCO4)cc(OC)c1O [Etoposide]; experiment: as above
Summary of the method: as §1

Cell Line	relative viability (Bleomycin; 0.01 µM)	relative viability (Bleomycin; 0.03162 µM)	relative viability (Bleomycin; 0.1 µM)	relative viability (Bleomycin; 0.3162 µM)	relative viability (Bleomycin; 1 µM)	relative viability (Etoposide; 0.01 µM)	relative viability (Etoposide; 0.03162 µM)	relative viability (Etoposide; 0.1 µM)	relative viability (Etoposide; 0.3162 µM)	relative viability (Etoposide; 1 µM)
NCI-H2087	0.822	1.06	0.851	0.257	0.235	0.967	1.11	0.978	0.78	0.259
NCI-H2126	0.961	1	1.03	0.758	0.714	0.977	1.05	0.63	0.859	0.441
NCI-H2170	0.939	0.934	0.86	0.703	0.66	0.938	0.985		0.986	0.834
NCI-H2228	0.902	1.01	0.899	0.559	0.311	0.926	1.1	0.7	0.582	0.195
NCI-H2342	1.02	0.999	0.968	0.759	0.653	1.04	1.03	0.533	0.38	0.34
NCI-H2347	0.915	1.03	0.918	0.461	0.558	1	1.01	0.733	0.541	0.45
NCI-H2405	0.884	0.969	0.918	0.569	0.394	1.04	1.09	0.772	0.835	0.47
NCI-H3122	1	0.993	0.928	0.528	0.358	1	0.995	0.983	0.854	0.333
PC-3 [JPC-3]	1.01	1.01	0.939	0.73	0.535	1.03	1.1	1.07	0.989	0.837
PC-14	0.656	0.612	0.286	0.097	0.057	0.996	1.08	0.933	0.782	0.441
RERF-LC-KJ	0.694	0.675	0.591	0.308	0.271	0.846	1.06	0.861	0.873	0.653
SK-LU-1	0.897	1.01	0.909	0.588	0.411	0.99	1.03	0.67	0.413	0.264
SK-MES-1	0.861	0.885	0.77	0.371	0.262	0.978	1.06	0.9	0.587	0.258
SW 900	0.697	0.816	0.6	0.21	0.205	0.778	0.809	0.729	0.524	0.224
SW 1573	0.743	0.705	0.677	0.396	0.286	0.968	0.986	0.635	0.309	0.167
